From ChEMBL document CHEMBL2163248, “Classification of inhibitors of hepatic organic anion transporting polypeptides (OATPs): influence of protein expression on drug-drug interactions” (J Med Chem, 2012)

How the values were obtained:
[1] = target: T1, Solute carrier organic anion transporter family member 2B1 (Homo sapiens, UniProt O94956); test: Inhibition of human liver OATP2B1 expressed in HEK293 Flp-In cells assessed as reduction in [3H]E3S uptake at 20 uM incubated for 5 mins by scintillation counting; conditions: hek293, 5 min
T1 sequence (O94956 whole entry): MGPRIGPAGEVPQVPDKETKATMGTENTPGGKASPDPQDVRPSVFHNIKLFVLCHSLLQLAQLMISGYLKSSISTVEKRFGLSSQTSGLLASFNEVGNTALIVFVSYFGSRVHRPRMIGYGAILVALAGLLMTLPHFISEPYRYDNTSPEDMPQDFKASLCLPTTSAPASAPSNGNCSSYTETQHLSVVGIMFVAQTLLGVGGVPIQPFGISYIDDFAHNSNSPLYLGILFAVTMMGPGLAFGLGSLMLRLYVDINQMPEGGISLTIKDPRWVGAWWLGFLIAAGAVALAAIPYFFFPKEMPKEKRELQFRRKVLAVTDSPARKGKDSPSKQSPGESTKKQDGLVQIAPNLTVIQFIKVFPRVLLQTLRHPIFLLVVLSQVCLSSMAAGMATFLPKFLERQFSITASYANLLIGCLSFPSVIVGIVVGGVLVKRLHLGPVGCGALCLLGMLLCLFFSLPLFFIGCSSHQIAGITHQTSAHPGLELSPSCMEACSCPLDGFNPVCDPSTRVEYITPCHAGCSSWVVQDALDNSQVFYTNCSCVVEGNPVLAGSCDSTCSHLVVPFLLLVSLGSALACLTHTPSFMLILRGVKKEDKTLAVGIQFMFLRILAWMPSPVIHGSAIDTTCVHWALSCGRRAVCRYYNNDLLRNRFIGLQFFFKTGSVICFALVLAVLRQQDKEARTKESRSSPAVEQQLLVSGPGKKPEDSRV

[2] = target: T2, Solute carrier organic anion transporter family member 1B1 (Homo sapiens, UniProt Q9Y6L6); test: Inhibition of human liver OATP1B1 expressed in HEK293 Flp-In cells assessed as reduction in E17-betaG uptake at 20 uM by scintillation counting; conditions: hek293, 20 µM
T2 sequence (Q9Y6L6 whole entry): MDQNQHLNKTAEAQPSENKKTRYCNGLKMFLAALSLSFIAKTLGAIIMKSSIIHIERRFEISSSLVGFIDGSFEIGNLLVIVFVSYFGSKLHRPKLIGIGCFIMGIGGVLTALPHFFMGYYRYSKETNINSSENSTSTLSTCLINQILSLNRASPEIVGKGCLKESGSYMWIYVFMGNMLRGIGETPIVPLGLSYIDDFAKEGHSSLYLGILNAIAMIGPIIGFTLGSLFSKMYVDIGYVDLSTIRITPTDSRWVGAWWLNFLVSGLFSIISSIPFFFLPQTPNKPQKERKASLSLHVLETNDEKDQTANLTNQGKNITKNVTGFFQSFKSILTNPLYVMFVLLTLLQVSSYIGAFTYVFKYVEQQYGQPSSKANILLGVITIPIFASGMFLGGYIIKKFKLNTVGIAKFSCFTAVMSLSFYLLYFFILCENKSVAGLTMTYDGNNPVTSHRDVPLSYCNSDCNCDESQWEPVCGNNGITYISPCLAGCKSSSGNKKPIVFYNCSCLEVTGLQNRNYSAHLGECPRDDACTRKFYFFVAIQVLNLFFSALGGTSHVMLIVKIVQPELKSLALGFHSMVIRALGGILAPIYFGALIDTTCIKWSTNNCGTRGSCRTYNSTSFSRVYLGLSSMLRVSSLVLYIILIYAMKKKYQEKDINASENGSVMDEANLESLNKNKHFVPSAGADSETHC

[3] = target: T3, Solute carrier organic anion transporter family member 1B3 (Homo sapiens, UniProt Q9NPD5); test: Inhibition of human liver OATP1B3 expressed in HEK293 Flp-In cells assessed as reduction in [3H]E17-betaG uptake at 20 uM incubated for 5 mins by scintillation counting; conditions: hek293, 5 min
T3 sequence (Q9NPD5 whole entry): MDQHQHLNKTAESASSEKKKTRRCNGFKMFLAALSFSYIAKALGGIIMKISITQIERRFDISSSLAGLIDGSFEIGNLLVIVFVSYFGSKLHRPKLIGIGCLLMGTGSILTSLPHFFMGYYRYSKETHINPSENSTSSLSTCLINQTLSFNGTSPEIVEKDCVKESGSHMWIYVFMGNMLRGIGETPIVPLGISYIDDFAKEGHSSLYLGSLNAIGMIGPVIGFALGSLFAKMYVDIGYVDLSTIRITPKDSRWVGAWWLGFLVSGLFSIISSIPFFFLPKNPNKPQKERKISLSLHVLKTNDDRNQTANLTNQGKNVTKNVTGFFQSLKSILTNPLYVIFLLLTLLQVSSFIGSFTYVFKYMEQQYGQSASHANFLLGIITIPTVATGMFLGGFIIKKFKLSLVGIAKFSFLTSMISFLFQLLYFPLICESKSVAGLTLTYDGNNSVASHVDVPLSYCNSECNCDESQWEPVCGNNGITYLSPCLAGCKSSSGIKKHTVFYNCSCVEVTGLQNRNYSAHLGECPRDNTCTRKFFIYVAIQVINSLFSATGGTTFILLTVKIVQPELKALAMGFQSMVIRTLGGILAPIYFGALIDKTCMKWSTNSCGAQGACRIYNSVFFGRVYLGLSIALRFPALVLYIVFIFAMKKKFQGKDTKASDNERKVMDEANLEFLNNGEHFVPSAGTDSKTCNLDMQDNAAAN

Compound	INH [1] [%]	INH [2] [%]	INH [3] [%]
COc1cc2nc(N3CCN(C(=O)C4COc5ccccc5O4)CC3)nc(N)c2cc1OC (centres undefined) [DOXAZOSIN]	45.8	28.8	-17.3
C[C@@H]1O[C@@H](O[C@H]2C[C@@H](O)[C@]3(CO)[C@H]4[C@H](O)C[C@]5(C)[C@@H](C6=CC(=O)OC6)CC[C@]5(O)[C@@H]4CC[C@]3(O)C2)[C@H](O)[C@H](O)[C@H]1O [OUABAIN]	-24.1	50.5	20.5
CC1(C)C(/C=C/C=C/C=C/C=C2/N(CCCCS(=O)(=O)[O-])c3ccc4ccccc4c3C2(C)C)=[N+](CCCCS(=O)(=O)[O-])c2ccc3ccccc3c21.[Na+] [INDOCYANINE GREEN]	79.2	86.1	100.1
C=C[C@H]1C[N+]2(C)CC[C@H]1C[C@@H]2[C@@H](O)c1ccnc2ccc(OC)cc12	-10.3	-6.1	21
NYSTATIN	23.4	69.3	74.9
CSc1ccc2c(c1)N(CCC1CCCCN1C)c1ccccc1S2 (centres undefined) [THIORIDAZINE]	21.5	26.1	25.2
CC/C(=C(/CC)c1ccc(O)cc1)c1ccc(O)cc1 [DIETHYLSTILBESTROL]	68.1	62.1	31.1
COc1ccc2c(c1)[C@]13CCCC[C@@H]1[C@H](C2)N(C)CC3 [DEXTROMETHORPHAN]	15.9	36.3	-21.9
COCCc1ccc(OCC(O)CNC(C)C)cc1 (centres undefined) [METOPROLOL]	30.5	28.1	19.8
CC(=O)S[C@@H]1CC2=CC(=O)CC[C@]2(C)[C@H]2CC[C@@]3(C)[C@@H](CC[C@@]34CCC(=O)O4)[C@H]12 [SPIRONOLACTONE]	-82	88.3	-34.2
CC(C)[C@H](N)C(=O)OCCOCn1cnc2c(=O)[nH]c(N)nc21 [VALACYCLOVIR]	-7.3	8.3	6.6
CCC[C@@]1(CCc2ccccc2)CC(O)=C([C@H](CC)c2cccc(NS(=O)(=O)c3ccc(C(F)(F)F)cn3)c2)C(=O)O1	99	89.5	109
O=c1ccc2ccccc2o1 [COUMARIN]	9.3	7.6	38.2
CC/C(=C(\c1ccccc1)c1ccc(OCCN(C)C)cc1)c1ccccc1 [TAMOXIFEN]	11	–	28.5
C[C@H]1O[C@H](O[C@H]2[C@H](O)[C@@H](O)[C@@H](O[C@H]3[C@H](O)[C@@H](O)C(O)O[C@@H]3CO)O[C@@H]2CO)[C@H](O)[C@@H](O)[C@@H]1N[C@H]1C=C(CO)[C@@H](O)[C@H](O)[C@H]1O (some centres undefined) [ACARBOSE]	0.1	14.9	17.7
C[C@H](CCC(=O)NCCS(=O)(=O)O)[C@H]1CC[C@H]2[C@@H]3[C@H](O)C[C@@H]4C[C@H](O)CC[C@]4(C)[C@H]3CC[C@]12C [TAUROCHENODEOXYCHOLATE]	47.2	89.5	82.4
CCCc1nc2c(C)cc(-c3nc4ccccc4n3C)cc2n1Cc1ccc(-c2ccccc2C(=O)O)cc1	94.9	109.4	91.5
CCOc1nc2cccc(C(=O)O)c2n1Cc1ccc(-c2ccccc2-c2nnn[nH]2)cc1	28.4	52.1	28.6
CCC1(c2ccccc2)NC(=O)N(C)C1=O (centres undefined) [MEPHENYTOIN]	32.9	-5.7	-0.6

Compound	INH [1] [%]	INH [2] [%]	INH [3] [%]
CC(C)(C)NC(=O)[C@@H]1C[C@@H]2CCCC[C@@H]2CN1C[C@@H](O)[C@H](Cc1ccccc1)NC(=O)[C@H](CC(N)=O)NC(=O)c1ccc2ccccc2n1	–	–	6.6
CC(C)n1c(/C=C/C(O)CC(O)CC(=O)O)c(-c2ccc(F)cc2)c2ccccc21 (centres undefined) [FLUVASTATIN]	–	–	76
CNCCCN1c2ccccc2CCc2ccccc21 [DESIPRAMINE]	-4.4	–	3.2
C=C[C@H]1C[N@@]2CC[C@H]1C[C@H]2[C@H](O)c1ccnc2ccc(OC)cc12 [QUININE]	–	54	–
O=C1CN(/N=C/c2ccc([N+](=O)[O-])o2)C(=O)N1 [NITROFURANTOIN]	23.1	–	-1.5
CCC(C)(C)C(=O)O[C@H]1C[C@@H](C)C=C2C=C[C@H](C)[C@H](CC[C@@H]3C[C@@H](O)CC(=O)O3)[C@H]21 [SIMVASTATIN]	47.4	–	29.3
CCCN(CCC)S(=O)(=O)c1ccc(C(=O)O)cc1 [PROBENECID]	–	35.2	22
Nc1ccc(S(=O)(=O)Nc2ccnn2-c2ccccc2)cc1 [SULFAPHENAZOLE]	17.1	–	0.7
COc1ccc(CCN(C)CCCC(C#N)(c2ccc(OC)c(OC)c2)C(C)C)cc1OC (centres undefined)	-62.6	–	-9
C=C[C@H]1C[N@@]2CC[C@H]1C[C@@H]2[C@@H](O)c1ccnc2ccc(OC)cc12 [QUINIDINE]	–	43.3	–
COc1ccc(Cl)cc1C(=O)NCCc1ccc(S(=O)(=O)NC(=O)NC2CCCCC2)cc1 [GLYBURIDE]	77.4	–	49.3
CCCCC1C(=O)N(c2ccccc2)N(c2ccccc2)C1=O [PHENYLBUTAZONE]	–	–	17
COc1cc([C@@H]2c3cc4c(cc3[C@@H](O[C@@H]3O[C@@H]5CO[C@@H](C)O[C@H]5[C@H](O)[C@H]3O)[C@H]3COC(=O)[C@H]23)OCO4)cc(OC)c1O [ETOPOSIDE]	6.8	–	–
Cc1ccc(N(CC(=O)O)CC(=O)O)c(OCCOc2cc(-c3c4cc(Cl)c(=O)cc-4oc4cc(O)c(Cl)cc34)ccc2N(CC(=O)O)CC(=O)O)c1	–	–	88.5
COC(=O)[C@H]1[C@H]2C[C@@H]3c4[nH]c5cc(OC)ccc5c4CCN3C[C@H]2C[C@@H](OC(=O)c2cc(OC)c(OC)c(OC)c2)[C@@H]1OC [RESERPINE]	72.3	67.2	–
CN(CCOc1ccc(NS(C)(=O)=O)cc1)CCc1ccc(NS(C)(=O)=O)cc1 [DOFETILIDE]	–	1	19.9
C[C@]12CC[C@H]3[C@@H](CCC4=CC(=O)CC[C@@]43C)[C@@H]1CC[C@@H]2O [TESTOSTERONE]	-175.1	–	–
Nc1nc(=O)n([C@@H]2CS[C@H](CO)O2)cc1F [EMTRICITABINE]	–	6.4	17.1
